According to patent publication US12059398B2, “Compositions of 1,3-butanediol and beta-hydroxybutyric acid to provide optimal therapeutic ketosis” (Health Via Modern Nutrition Inc., priority 2022, dated 2024):

What was measured:
[1] = Blood D-BHB pharmacokinetics comparison of ketogenic nutritional compositions after ingestion; assay type: in vivo; conditions: for Blood D-BHB: dose 0.5 g (total BDO or BHB)/bodyweight kg, ingestion
Method: FIG. 1 is a graph showing the blood D-BHB pharmacokinetics for eight ketogenic compositions, reporting blood D-BHB mM over a time period of six hours following ingestion of the ketogenic compositions.
The blood D-BHB pharmacokinetics produced by different ketogenic nutritional compositions were evaluated and compared. The nutritional compositions include: 100% R-BDO; 90 wt. % R-BDO+10 wt. % D-BHB (acid/salt); 85 wt. % R-BDO+15 wt. % D-BHB (acid/salt); 80 wt. % R-BDO+20 wt. % D-BHB (acid/salt); 75 wt. % R-BDO+25 wt. % D-BHB (acid/salt); 70 wt. % BDO+30 wt. % D-BHB; 60 wt. % BDO+40 wt. % D-BHB; and 50% BDO+50% D-BHB via R-1,3 BDO−D-BHB monoester. The compositions were administered at a dose of 0.5 g (total BDO or BHB excluding mineral or base pairs)/bodyweight kg.
The nutritional compositions include: 100% R-BDO; 90 wt. % R-BDO+10 wt. % D-BHB (acid/salt); 85 wt. % R-BDO+15 wt. % D-BHB (acid/salt); 80 wt. % R-BDO+20 wt. % D-BHB (acid/salt); 75 wt. % R-BDO+25 wt. % D-BHB (acid/salt); 70 wt. % BDO+30 wt. % D-BHB; 60 wt. % BDO+40 wt. % D-BHB; and 50% BDO+50% D-BHB via R-1,3 BDO−D-BHB monoester.
By integrating over time rather than looking at individual concentration measurements, a more accurate estimate of the overall exposure to the drug is obtained.

[2] = test system: potassium channels and nitric oxide synthase; conditions: cited from earlier work
[3] = dose 0.5 g/bodyweight kg, six hours following ingestion

Row | Molecule | Blood D-BHB ([1]; 0 minutes) [mM] | Blood D-BHB ([1]; 60 minutes) [mM] | Blood D-BHB ([1]; 120 minutes) [mM] | Blood D-BHB ([1]; 180 minutes) [mM] | Blood D-BHB ([1]; 240 minutes) [mM] | Blood D-BHB ([1]; 300 minutes) [mM] | Blood D-BHB ([1]; 360 minutes) [mM] | Duration of Blood D-BHB Concentrations between 1 mM and 2.5 mM [1, 3] [min] | Total AUC mM × minutes in optimal therapeutic ketosis range of 1-2.5 mM [1, 3] [mM·min] | Effect on age-associated endothelial-dependent and -independent dysfunction ([2]; not associated with increased blood BHB concentration) | Direct vasodilator mechanism ([2]; through activation of potassium channels and nitric oxide synthase)
1 | R-1,3 BDO−D-BHB monoester | 0.3 | 4.3 | 1.9 | 1.3 | 0.5 | 0.3 | 0.2 | 158 | 98.3 | – | –
2 | C[C@@H](O)CCO [100% R-1,3-BDO (natural), R-1,3-butanediol] | – | – | – | – | – | – | – | – | – | sufficient to reverse age-associated endothelial-dependent and -independent dysfunction | predominantly an endothelium-dependent vasodilator
